Data reported in patent US12281098B2, “Five-membered-fused six-membered compound, preparation method, pharmaceutical composition and use” (HANGZHOU POLYMED BIOPHARMACEUTICALS, INC., priority 2021, dated 2025).
pIC50: −log10 of the molar value.

Target: T1, IRAK4 kinase (Homo sapiens, UniProt Q9NWZ3)
T1 construct: purchased Carna 09-145
T1 sequence (Q9NWZ3 1-460): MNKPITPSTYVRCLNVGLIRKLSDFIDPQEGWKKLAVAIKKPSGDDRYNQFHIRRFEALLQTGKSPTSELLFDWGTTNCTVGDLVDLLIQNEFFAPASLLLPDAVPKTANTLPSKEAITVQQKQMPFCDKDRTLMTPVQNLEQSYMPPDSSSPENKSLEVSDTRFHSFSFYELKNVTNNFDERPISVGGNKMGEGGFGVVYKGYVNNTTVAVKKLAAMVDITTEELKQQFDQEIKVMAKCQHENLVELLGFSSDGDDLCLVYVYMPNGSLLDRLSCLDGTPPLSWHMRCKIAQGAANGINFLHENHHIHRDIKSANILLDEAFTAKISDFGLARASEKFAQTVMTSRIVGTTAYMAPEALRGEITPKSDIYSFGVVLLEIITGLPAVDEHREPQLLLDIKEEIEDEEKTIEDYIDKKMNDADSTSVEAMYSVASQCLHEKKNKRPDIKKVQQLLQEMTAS
Experiment: Compound inhibition of IRAK4 kinase activity (fluorescence microfluidic mobility shift assay)
Format: biochemical
Conditions: 10 μM ATP, 6 nM IRAK4 kinase
Experimental: Based on the experimental method of fluorescence microfluidic mobility shift assay, the IC50 value of the compound for competitive binding of ATP to IRAK4 kinase was determined. The initial detection concentration of the compound was 10 μM, which was 4-fold serially diluted to 0.38 nM and assayed in duplicate. In this case, commercially available staurosporine was the standard control for the assay.
1) IRAK4 kinase was dissolved in kinase buffer (50 mM HEPES pH 7.5, 10 mM MgCl2, 2 mM DDT, and 0.01% Brij-35) at a final concentration of 6 nM.
2) The substrate peptide FAM-P8 and ATP were dissolved in the above kinase buffer, and the final concentrations of the substrate peptide FAM-P8 and ATP for IRAK4 were 3 μM and 10 μM, respectively.
3) Compound dilution: The compound was first diluted to 50 μM, and then 4-fold serially diluted with DMSO. In this case, the solution without compound and kinase served as the blank control, corresponding to the “minimum value” shown below; the solution without compound but containing kinase, adenosine 5′-triphosphate disodium salt hydrate, DMSO, and the buffer served as the positive control, corresponding to the “maximum value” shown below.
4) Kinase reaction and termination: 10 μL of the kinase buffer was added to a 384-well plate containing 5 μL of the compound to be tested, and the mixture was incubated at room temperature for 10 minutes; another 10 μL of buffer containing the substrate peptide and adenosine 5′-triphosphate disodium salt hydrate was added to the 384-well plate, and after incubation at 28° C. for 1 hour, 25 μL of termination solution (100 mM HEPES pH 7.5, 50 mM EDTA, 0.2% Coating Reagent #3, and 0.015% Brij-35) was added to each well to terminate the reaction.
5) Data reading: CaliperEZ Reader II instrument was used to read the conversion rate data. Setting conditions: downstream voltage as −500 V, upstream voltage as −2250 V, base pressure as −0.5 PSI, and screening pressure as −1.2 PSI.
6) Data calculation: the conversion rate data was copied from CaliperEZ Reader II, and the conversion rate was converted into inhibition rate data. The calculation formula is as follows: Inhibition percentage (%)=(maximum value−conversion rate)/(maximum value−minimum value)*100%
IC50 values were fitted with XLFit excel add-in version 5.4.0.8.

COc1cc2nn(CCN3CCC(CC(=O)N4CC5(C4)CN(c4cccc6c4C(=O)N(C4CCC(=O)NC4=O)C6=O)C5)CC3)cc2cc1NC(=O)c1cccc(C(F)(F)F)n1 (stereo not drawn) [III-72] was tested, and the pIC50 (Table 2) was > 7.00.
In the case of Cc1ncsc1-c1ccc([C@H](C)NC(=O)[C@@H]2C[C@@H](O)CN2C(=O)[C@@H](NC(=O)C2CCC3(CC2)CCN(C(=O)CN2CCN(CCn4cc5cc(NC(=O)c6cccc(C(F)(F)F)n6)c(OC(C)C)cc5n4)CC2)CC3)C(C)(C)C)cc1 [III-57], the pIC50 (Table 2) was > 7.00.
A pIC50 (Table 2) of 6.00 to 7.00 was found for COc1cc2c(cc1NC(=O)c1cccc(C(F)(F)F)n1)CN(CCC(C)(C)C(=O)N1CCC3(CC1)CCN(c1ncc(Nc4cccc5c4C(=O)N(C4CCC(=O)NC4=O)C5=O)cn1)CC3)C2=O (stereo not drawn) [III-33] in this work.
COc1cc2nn(CCN3CCN(C4CCC5(CC4)CCN(c4cccc6c4C(=O)N(C4CCC(=O)NC4=O)C6=O)CC5)CC3)cc2cc1NC(=O)c1cccc(C(F)(F)F)n1 (stereo not drawn) [III-40] was tested, and the pIC50 (Table 2) was > 7.00.
In the case of COc1cc2nn(CCN3CCN(CC(=O)N4CC5(C4)CN(c4cccc6c4C(=O)N(C4CCC(=O)NC4=O)C6=O)C5)CC3)cc2cc1NC(=O)c1cccc(C(F)(F)F)n1 (stereo not drawn) [III-61], the pIC50 (Table 2) was > 7.00.
In the case of COc1cc2nn(CCN3CCN(CC(=O)N4CCC5(CC4)CCN(c4cc6c(cc4F)C(=O)N(C4CCC(=O)NC4=O)C6=O)CC5)CC3)cc2cc1NC(=O)c1cccc(C(F)(F)F)n1 (stereo not drawn) [III-55], the pIC50 (Table 2) was > 7.00.
A pIC50 (Table 2) of 6.00 to 7.00 was found for O=C1CCC(N2C(=O)c3cccc(N4CCC5(CCN(C(=O)CN6CCN(CCn7cc8cc(NC(=O)c9cccc(C(F)(F)F)n9)c(OC(F)(F)F)cc8n7)CC6)CC5)CC4)c3C2=O)C(=O)N1 (stereo not drawn) [III-73] in this work.
A pIC50 (Table 2) of 6.00 to 7.00 was found for COc1cc2c(cc1NC(=O)c1cccc(C(F)(F)F)n1)CN(CCC(C)(C)C(=O)N1CC3(C1)CN(c1cccc4c1C(=O)N(C1CCC(=O)NC1=O)C4=O)C3)C2=O (stereo not drawn) [III-64] in this work.
COc1cc2nn(CCN3CCN(CC(=O)N4CCC5(CC4)CN(c4cccc6c4C(=O)N(C4CCC(=O)NC4=O)C6=O)C5)CC3)cc2cc1NC(=O)c1cccc(C(F)(F)F)n1 (stereo not drawn) [III-62] was tested, and the pIC50 (Table 2) was > 7.00.
In the case of COc1cc2nn(CCN3CCN(CC(=O)N4CCC5(CC4)CCN(c4cccc6c4C(=O)N(C4CCC(=O)NC4=O)C6=O)CC5)[C@H](C)C3)cc2cc1NC(=O)c1cccc(C(F)(F)F)n1 (stereo partly drawn) [III-45], the pIC50 (Table 2) was > 7.00.
In the case of COc1cc2nn(CCN3CCC(CC(=O)N4CCC5(CC4)CCN(c4cccc6c4C(=O)N(C4CCC(=O)NC4=O)C6=O)CC5)CC3)cc2cc1NC(=O)c1cccc(C(F)(F)F)n1 (stereo not drawn) [III-71], the pIC50 (Table 2) was > 7.00.
A pIC50 (Table 2) of 6.00 to 7.00 was found for COc1cc2c(cc1NC(=O)c1cccc(C(F)(F)F)n1)CN(CCC(C)(C)C(=O)N1CCC3(CC1)CCN(c1ncc(C(=O)N[C@H](C(=O)N4C[C@H](O)C[C@H]4C(=O)N[C@@H](C)c4ccc(-c5scnc5C)cc4)C(C)(C)C)cn1)CC3)C2=O [III-32] in this work.
A pIC50 (Table 2) of 6.00 to 7.00 was found for COc1cc2c(cc1NC(=O)c1cccc(C(F)(F)F)n1)CN(CCN1CCN(CC(=O)N3CCC4(CCC(NC(C(=O)N5CC(O)CC5C(=O)NC(C)c5ccc(-c6scnc6C)cc5)C(C)(C)C)CC4)CC3)CC1)C2=O (stereo not drawn) [III-44] in this work.
A pIC50 (Table 1) of 5.00 to 6.00 and a pIC50 (Table 2) of 5.00 to 6.00 were found for O=C1CCC(N2C(=O)c3cccc(NCCOCCOCCOCCN4Cc5cc(NC(=O)c6cccc(C(F)(F)F)n6)c(Br)cc5C4=O)c3C2=O)C(=O)N1 (stereo not drawn) [III-4] in this work.
With CC(C)Oc1cc2nn(CCN3CCN(CC(=O)N4CCC5(CC4)CCN(c4cccc6c4C(=O)N(C4CCC(=O)NC4=O)C6=O)CC5)CC3)cc2cc1NC(=O)c1cccc(C(F)(F)F)n1 (stereo not drawn) [III-51] the pIC50 (Table 2) was > 7.00.
COc1cc2nn(CCN3CCN(CC(=O)N4CCC5(CC4)CCN(c4cccc6c4C(=O)N(C4CCC(=O)NC4=O)C6=O)CC5)[C@@H](C)C3)cc2cc1NC(=O)c1cccc(C(F)(F)F)n1 (stereo partly drawn) [III-46] was tested, and the pIC50 (Table 2) was > 7.00.
For COc1cc2nn(CCN3CCN(CC(=O)N4CCC5(CCC(C(=O)N[C@H](C(=O)N6C[C@H](O)C[C@H]6C(=O)N[C@@H](C)c6ccc(-c7scnc7C)cc6)C(C)(C)C)CC5)CC4)[C@H](C)C3)cc2cc1NC(=O)c1cccc(C(F)(F)F)n1 [III-48], the pIC50 (Table 2) was > 7.00.
COc1cc2nn(CCN3CCN(CC(=O)N4CCC5(CC4)CCN(c4cccc6c4C(=O)N(C4CCC(=O)NC4=O)C6=O)CC5)CC3)cc2cc1NC(=O)c1cccc(C(F)(F)F)n1 (stereo not drawn) [III-38] was tested, and the pIC50 (Table 2) was > 7.00.
A pIC50 (Table 2) of 6.00 to 7.00 was found for COc1cc2c(cc1NC(=O)c1cccc(C(F)(F)F)n1)CN(CCN1CCN(CC(=O)N3CCC4(CCC(C(=O)NC(C(=O)N5CC(O)CC5C(=O)NC(C)c5ccc(-c6scnc6C)cc5)C(C)(C)C)CC4)CC3)CC1)C2=O (stereo not drawn) [III-43] in this work.
In the case of COc1cc2nn(CCC3CCN(CC(=O)N4CCC5(CCC(C(=O)N[C@H](C(=O)N6C[C@H](O)C[C@H]6C(=O)N[C@@H](C)c6ccc(-c7scnc7C)cc6)C(C)(C)C)CC5)CC4)CC3)cc2cc1NC(=O)c1cccc(C(F)(F)F)n1 [III-68], the pIC50 (Table 2) was > 7.00.
For CC(C)Oc1cc2nn(CCN3CCN(CC(=O)N4CC5(C4)CN(c4cccc6c4C(=O)N(C4CCC(=O)NC4=O)C6=O)C5)CC3)cc2cc1NC(=O)c1cccc(C(F)(F)F)n1 (stereo not drawn) [III-60], the pIC50 (Table 2) was > 7.00.
In the case of COc1cc2nn(CCN3C4CCC3CN(CC(=O)N3CCC5(CC3)CCN(c3cccc6c3C(=O)N(C3CCC(=O)NC3=O)C6=O)CC5)C4)cc2cc1NC(=O)c1cccc(C(F)(F)F)n1 (stereo not drawn) [III-53], the pIC50 (Table 2) was > 7.00.
With O=C(CCCN1Cc2cc(NC(=O)c3cccc(C(F)(F)F)n3)c(Br)cc2C1=O)NCCOCCOCCNc1cccc2c1C(=O)N(C1CCC(=O)NC1=O)C2=O (stereo not drawn) [III-1] the pIC50 (Table 1) was ≤ 5.00 and the pIC50 (Table 2) was ≤ 5.00.
A pIC50 (Table 1) of 6.00 to 7.00 and a pIC50 (Table 2) of 6.00 to 7.00 were found for CC(C)(O)c1cc2nn(CCN3CCN(CC(=O)N4CC5(CCN(c6cccc7c6C(=O)N(C6CCC(=O)NC6=O)C7=O)CC5)C4)C3=O)cc2cc1NC(=O)c1cccc(C(F)(F)F)n1 (stereo not drawn) [III-12] in this work.
With COc1cc2nn(CCC3CCN(CC(=O)N4CCC5(CC4)CCN(c4cccc6c4C(=O)N(C4CCC(=O)NC4=O)C6=O)CC5)CC3)cc2cc1NC(=O)c1cccc(C(F)(F)F)n1 (stereo not drawn) [III-66] the pIC50 (Table 2) was > 7.00.
A pIC50 (Table 1) of 6.00 to 7.00 and a pIC50 (Table 2) of 6.00 to 7.00 were found for Cc1ncsc1-c1ccc([C@H](C)NC(=O)C2C[C@@H](O)CN2C(=O)[C@@H](NC(=O)COCCNC(=O)CN2CCN(CCn3cc4cc(NC(=O)c5cccc(C(F)(F)F)n5)c(C(C)(C)O)cc4n3)C2=O)C(C)(C)C)cc1 (stereo partly drawn) [III-15] in this work.
With CC(C)(O)c1cc2nn(CCN3CCN(CC(=O)N4CCC5(CC4)CCN(c4cccc6c4C(=O)N(C4CCC(=O)NC4=O)C6=O)CC5)CC3)cc2cc1NC(=O)c1cccc(C(F)(F)F)n1 (stereo not drawn) [III-50] the pIC50 (Table 2) was > 7.00.
A pIC50 (Table 1) of 6.00 to 7.00 and a pIC50 (Table 2) of 6.00 to 7.00 were found for CC(C)(O)c1cc2nn(CCN3CCN(CC(=O)N4CCN(c5cccc6c5C(=O)N(C5CCC(=O)NC5=O)C6=O)CC4)C3=O)cc2cc1NC(=O)c1cccc(C(F)(F)F)n1 (stereo not drawn) [III-14] in this work.
COc1cc2nn(CC#CC3CCN(CC(=O)N4CCC5(CC4)CCN(c4cccc6c4C(=O)N(C4CCC(=O)NC4=O)C6=O)CC5)CC3)cc2cc1NC(=O)c1cccc(C(F)(F)F)n1 (stereo not drawn) [III-67] was tested, and the pIC50 (Table 2) was > 7.00.
A pIC50 (Table 2) of 6.00 to 7.00 was found for COc1cc2c(cc1NC(=O)c1cccc(C(F)(F)F)n1)CN(CCC(C)(C)C(=O)N1CCC3(CC1)CN(c1cccc4c1C(=O)N(C1CCC(=O)NC1=O)C4=O)C3)C2=O (stereo not drawn) [III-59] in this work.
A pIC50 (Table 1) of 6.00 to 7.00 and a pIC50 (Table 2) of 6.00 to 7.00 were found for CC(C)(O)c1cc2nn(CCN3CCN(CC(=O)NC4CCN(c5cccc6c5C(=O)N(C5CCC(=O)NC5=O)C6=O)CC4)C3=O)cc2cc1NC(=O)c1cccc(C(F)(F)F)n1 (stereo not drawn) [III-13] in this work.
A pIC50 (Table 2) of 6.00 to 7.00 was found for COc1cc2c(cc1NC(=O)c1cccc(C(F)(F)F)n1)CN(CCN1CCN(CC(=O)N3CCC4(CC3)CCN(c3cccc5c3C(=O)N(C3CCC(=O)NC3=O)C5=O)CC4)CC1)C2=O (stereo not drawn) [III-58] in this work.
For COc1cc2nn(CCC3CCN(CC(=O)N4CC5(CC(CC(=O)N[C@H](C(=O)N6C[C@H](O)C[C@H]6C(=O)N[C@@H](C)c6ccc(-c7scnc7C)cc6)C(C)(C)C)C5)C4)CC3)cc2cc1NC(=O)c1cccc(C(F)(F)F)n1 [III-70], the pIC50 (Table 2) was > 7.00.
